Values quoted from earlier work as cited in US12084679B2, “Methods of in vitro differentiation of midbrain dopamine (mDA) neurons” (MEMORIAL SLOAN-KETTERING CANCER CENTER, priority 2015, dated 2024).

Tests used:
[1] = tested on: rodent GSK3β homologs
[2] = target: ALK3 (Homo sapiens, UniProt P36894)
[3] = target: ALK6 (Homo sapiens, UniProt O00238)
[4] = target: T1, ALK2 (Homo sapiens, UniProt Q04771)
T1 sequence (Q04771 21-509): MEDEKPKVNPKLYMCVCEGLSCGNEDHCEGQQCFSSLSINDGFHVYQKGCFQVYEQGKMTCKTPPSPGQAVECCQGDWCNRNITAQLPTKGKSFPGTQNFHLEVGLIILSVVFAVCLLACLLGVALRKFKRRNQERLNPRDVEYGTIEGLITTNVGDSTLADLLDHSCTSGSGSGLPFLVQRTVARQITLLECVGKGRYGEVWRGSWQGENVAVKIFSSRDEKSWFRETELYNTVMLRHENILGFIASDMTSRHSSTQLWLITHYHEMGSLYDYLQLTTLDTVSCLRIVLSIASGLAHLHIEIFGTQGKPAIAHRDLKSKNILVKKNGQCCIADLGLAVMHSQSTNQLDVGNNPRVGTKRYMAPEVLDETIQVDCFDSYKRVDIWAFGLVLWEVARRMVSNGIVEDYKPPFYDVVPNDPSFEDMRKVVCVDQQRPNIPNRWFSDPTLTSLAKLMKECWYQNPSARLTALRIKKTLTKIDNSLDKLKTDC

Chain of ALK6 (O00238 14-502): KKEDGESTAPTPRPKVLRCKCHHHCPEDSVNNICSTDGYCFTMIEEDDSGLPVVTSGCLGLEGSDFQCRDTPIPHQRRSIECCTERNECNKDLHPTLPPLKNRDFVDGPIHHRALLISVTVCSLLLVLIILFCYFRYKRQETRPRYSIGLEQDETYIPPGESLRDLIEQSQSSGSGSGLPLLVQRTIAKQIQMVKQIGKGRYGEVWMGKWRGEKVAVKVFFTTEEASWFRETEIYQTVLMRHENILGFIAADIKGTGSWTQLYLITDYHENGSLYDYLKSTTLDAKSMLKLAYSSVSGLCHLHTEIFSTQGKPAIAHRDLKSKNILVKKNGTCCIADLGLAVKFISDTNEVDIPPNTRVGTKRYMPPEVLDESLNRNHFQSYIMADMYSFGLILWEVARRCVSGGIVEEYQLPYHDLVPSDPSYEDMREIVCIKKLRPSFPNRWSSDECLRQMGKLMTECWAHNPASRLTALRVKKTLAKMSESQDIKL
Chain of ALK3 (P36894 24-532, species assumed): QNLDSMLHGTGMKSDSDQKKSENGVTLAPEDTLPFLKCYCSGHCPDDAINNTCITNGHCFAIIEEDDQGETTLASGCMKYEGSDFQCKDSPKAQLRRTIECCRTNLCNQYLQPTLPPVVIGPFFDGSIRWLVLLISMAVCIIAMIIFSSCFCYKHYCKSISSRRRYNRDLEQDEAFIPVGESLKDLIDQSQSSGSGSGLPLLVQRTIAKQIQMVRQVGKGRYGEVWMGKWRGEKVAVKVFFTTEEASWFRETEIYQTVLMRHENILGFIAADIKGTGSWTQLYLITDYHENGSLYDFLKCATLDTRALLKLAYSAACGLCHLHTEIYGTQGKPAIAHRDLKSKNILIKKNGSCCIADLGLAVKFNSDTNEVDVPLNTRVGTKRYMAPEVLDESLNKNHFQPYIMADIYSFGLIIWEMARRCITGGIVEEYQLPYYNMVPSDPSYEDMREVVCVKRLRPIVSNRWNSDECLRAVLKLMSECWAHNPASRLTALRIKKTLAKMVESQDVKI

SMILES	IC50 values against rodent GSK3β homologs [1]	inhibitor of ALK3 [2]	inhibitor of ALK6 [3]	inhibitor of ALK2 [4]
Cc1c[nH]c(-c2cnc(NCCNc3ccc(C#N)cn3)nc2-c2ccc(Cl)cc2Cl)n1 [CHIR99021, 6-(2-(4-(2,4-dichlorophenyl)-5-(4-methyl-H-imidazol-2-yl)pyrimidin-2-ylamino)ethylamino)nicotinonitrile]	nanomolar			
c1ccc2c(-c3cnn4cc(-c5ccc(N6CCNCC6)cc5)cnc34)ccnc2c1 [LDN193189, 4-(6-(4-(piperazin-1-yl)phenyl)pyrazolo[1,5-a]pyrimidin-3-yl)quinoline]		highly potent	highly potent	highly potent
